Earlier results as cited in publication PMC3725996 (Bioorganic & medicinal chemistry letters, 2010).

Columns and labels:
[1] = tested on: extracellular DA in rat nucleus accumbens; settings: following acute or repeated nicotine administration, ref [16]
[2] = tested on: nicotine self-administration; settings: rats; ref [17]

Cc1ccc[n+](CCCCCCCCCCCC[n+]2cccc(C)c2)c1.[Br-].[Br-] [bPiDDB 1, N,N′-dodecane-1,12-diyl-bis-3-picolinium dibromide]
Effect on increase in extracellular DA in nucleus accumbens [1]: dose-dependently reduced the increase in extracellular DA
Effect on nicotine self-administration [2]: dose-dependently decreased nicotine self-administration
Effect on sucrose-maintained responding [2]: but not sucrose-maintained responding
Oral bioavailability (oral route, ref Albayati et al., unpublished data): limited bioavailability when given by the oral route
Brain bioavailability (subcutaneous delivery, 14C-bPiDDB, ref [19]–[20]): brain-bioavailable after subcutaneous delivery
